From ChEMBL document CHEMBL4406896, “Pyrenocine A induces monopolar spindle formation and suppresses proliferation of cancer cells” (Bioorg Med Chem, 2019)
Each block holds one molecule with its values, some of them ahead of it. Calls of active or inactive are those of the source. The calls are words filed in the database; no cut-off is given here.

Tests used:
HeLa [1] = test: Antiproliferative activity against human HeLa cells incubated for 48 hrs by WST8 assay; type: functional, cell-based
HeLa [2] = test: Induction of cell cycle arrest in human HeLa cells assessed as mono-polar spindles formation surrounded by ring shaped chromosomes in mitotic cells at 5 uM incubated for 6 hrs by Hoechst 33342 staining based confocal microscopic method; type: functional
HeLa [3] = test: Cytotoxicity against human HeLa cells assessed as cell death at 5 to […] incubated for 48 hrs by LDH assay relative to control; type: cell-based
HeLa [4] = test: Induction of cell cycle arrest in S phase synchronized human HeLa cells stably expressing GFP-HistoneH1 fusion protein assessed as increase in total mitotic cells at 1 uM incubated for 6 hrs by inverted fluorescence microscopic method relative to control; type: functional
[5] = biological target: T1, Kinesin-like protein KIF11 (Homo sapiens) (UniProt P52732); test: Inhibition of human Eg5 motor domain (1 to 368 residues) expressed in Escherichia coli assessed as reduction in microtubule-stimulated ATPase activity at 100 uM incubated with ATP for 6 mins by malachite green method
T1 sequence (whole entry): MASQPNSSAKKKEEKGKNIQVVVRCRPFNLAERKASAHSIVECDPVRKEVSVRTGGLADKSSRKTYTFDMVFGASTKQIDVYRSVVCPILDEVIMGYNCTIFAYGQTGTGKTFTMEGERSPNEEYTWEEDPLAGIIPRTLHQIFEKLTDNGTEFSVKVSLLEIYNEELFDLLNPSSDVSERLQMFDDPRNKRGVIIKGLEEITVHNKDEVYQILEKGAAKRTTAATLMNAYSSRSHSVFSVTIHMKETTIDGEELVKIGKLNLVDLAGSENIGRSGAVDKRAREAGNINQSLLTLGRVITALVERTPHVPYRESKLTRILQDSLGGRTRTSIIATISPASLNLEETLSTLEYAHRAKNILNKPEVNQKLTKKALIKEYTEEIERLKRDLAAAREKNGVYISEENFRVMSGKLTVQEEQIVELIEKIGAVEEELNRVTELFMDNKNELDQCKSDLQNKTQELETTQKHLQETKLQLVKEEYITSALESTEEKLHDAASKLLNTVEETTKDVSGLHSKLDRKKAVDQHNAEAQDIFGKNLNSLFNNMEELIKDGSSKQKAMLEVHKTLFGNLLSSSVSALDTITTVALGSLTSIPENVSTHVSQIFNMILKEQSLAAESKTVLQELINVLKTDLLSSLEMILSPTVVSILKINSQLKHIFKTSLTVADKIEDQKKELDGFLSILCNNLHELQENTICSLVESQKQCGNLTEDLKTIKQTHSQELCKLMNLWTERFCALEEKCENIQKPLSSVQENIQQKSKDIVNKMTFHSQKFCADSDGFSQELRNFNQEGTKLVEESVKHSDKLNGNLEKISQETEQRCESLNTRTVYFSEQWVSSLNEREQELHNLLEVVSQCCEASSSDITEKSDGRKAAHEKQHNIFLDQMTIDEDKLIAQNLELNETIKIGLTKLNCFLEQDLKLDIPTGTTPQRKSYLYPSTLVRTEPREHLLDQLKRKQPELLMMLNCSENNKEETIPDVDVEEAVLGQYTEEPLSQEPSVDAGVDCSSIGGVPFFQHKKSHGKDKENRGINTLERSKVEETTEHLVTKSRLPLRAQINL

HeLa [6] = test: Induction of cell cycle arrest in S phase synchronized human HeLa cells stably expressing GFP-HistoneH1 fusion protein assessed as formation of ring shaped chromosomes at 5 uM incubated for 4 hrs by inverted fluorescence microscopic method; type: functional, cell-based
HeLa [7] = test: Induction of cell cycle arrest in S phase synchronized human HeLa cells stably expressing GFP-HistoneH1 fusion protein assessed as increase in total mitotic cells at 10 uM incubated for 6 hrs by inverted fluorescence microscopic method relative to control; type: functional
HeLa [8] = test: Induction of cell cycle arrest in S phase synchronized human HeLa cells stably expressing GFP-HistoneH1 fusion protein assessed as increase in total mitotic cells at 5 uM incubated for 6 hrs by inverted fluorescence microscopic method relative to control; type: functional
HeLa [9] = test: Induction of cell cycle arrest in S phase synchronized human HeLa cells stably expressing GFP-HistoneH1 fusion protein assessed as chromosomes division at 5 uM incubated for 3 hrs by inverted fluorescence microscopic method; type: functional, cell-based
HCT-116 = test: Antiproliferative activity against human HCT116 cells incubated for 48 hrs by WST8 assay; type: functional, cell-based; conditions: HCT-116, 48 h
A549 = test: Antiproliferative activity against human A549 cells incubated for 48 hrs by WST8 assay; type: functional, cell-based; conditions: A549, 48 h
Huh-7 = test: Antiproliferative activity against human HuH7 cells incubated for 48 hrs by WST8 assay; type: functional, cell-based; conditions: Huh-7, 48 h
HeLa [10] = test: Induction of cell cycle arrest in S phase synchronized human HeLa cells stably expressing GFP-HistoneH1 fusion protein assessed as increase in formation of ring shaped chromosomes incubated for 4 hrs by inverted fluorescence microscopic method; type: functional, cell-based
HeLa [11] = test: Induction of cell cycle arrest in S phase synchronized human HeLa cells stably expressing GFP-HistoneH1 fusion protein assessed as chromosomes alignment at 5 uM incubated for 3 hrs by inverted fluorescence microscopic method; type: functional, cell-based
HeLa [12] = test: Induction of cell cycle arrest in human HeLa cells assessed as mono-polar spindles formation surrounded by ring shaped chromosomes in mitotic cells at 3 uM incubated for 6 hrs by Hoechst 33342 staining based confocal microscopic method; type: functional

IC50 (HeLa [1]): 22300 nM
SMILES: COc1cc(=O)oc(C)c1C(=O)CC(C)O (centres undefined)

Activity [5]: inactive
IC50 (HeLa [1]): 9300 nM
IC50 (HCT-116): 2600 nM
IC50 (A549): 12900 nM
IC50 (Huh-7): 8600 nM
SMILES: C/C=C/C(=O)c1c(OC)cc(=O)oc1C
Activity (HeLa [2]): Active
Activity (HeLa [3]): 0 to 6%
Activity (HeLa [4]): 2%
Activity (HeLa [6]): Active
Activity (HeLa [7]): 14%
Activity (HeLa [8]): 7%
Activity (HeLa [9]): inactive
Activity (HeLa [10]): Dose-dependent effect
Activity (HeLa [11]): inactive

SMILES: N[C@@H](CSC(c1ccccc1)(c1ccccc1)c1ccccc1)C(=O)O
Activity (HeLa [12]): Active

IC50 (HeLa [1]): > 100000 nM
SMILES: CCCC(=O)c1c(OC)cc(=O)oc1C

IC50 (HeLa [1]): 400 nM
IC50 (HCT-116): 250 nM
IC50 (A549): 240 nM
IC50 (Huh-7): 220 nM
SMILES: COc1cccc2c1C(=O)c1c(O)c3c(c(O)c1C2=O)C[C@@](O)(C(=O)CO)C[C@@H]3O[C@H]1C[C@H](N)[C@H](O)[C@H](C)O1 [DOXORUBICIN]

IC50 (HeLa [1]): > 100000 nM
SMILES: C/C=C/Cc1c(O)cc(=O)oc1C

IC50 (HeLa [1]): 2300 nM
SMILES: C#CCOCC/C=C/C(=O)c1c(OC)cc(=O)oc1C
Activity (HeLa [10]): Active
